According to article PMC6049614 (Chemical Communications (Cambridge, England), 2018):
Where a SMILES comes first, the peptide text is derived from it. Bridges are numbered along the chain shown (N, C = ends). [ ]: non-standard residue; d: D form. The star is where a group is joined. X1 = O=C(O)CN1CCN(CC(=O)O)CCN(Cc2ccc(CC(=O)*)cc2)CC1; Mpa = O=C(O)CCS

Key:
[1] = parameters: method as in PMID 693485; details: following i.v. injection; cited from earlier work
physchem = assay type: physicochemical; details: pH 7.4
Procedure: (§1) To justify use of [Al^18F]NODA-dLVT in vivo, tracer lipophilicity and specific binding were determined through a standard shake flask assay and rat brain autoradiography, respectively. A log D7.4 of –0.54 ± 0.1 was established for [Al^18F]NODA-dLVT indicating a hydrophilic profile and potential for low non-specific binding. To investigate the feasibility of [Al^18F]NODA-dLVT for nervous system imaging, tracer was incubated at a concentration of 3 nM, either alone or in the presence of excess OT (10 μM) with brain tissue cut in the sagittal plane to determine total vs. non-specific binding (Fig. 3). This enabled calculation of % specific binding of [Al^18F]NODA-dLVT to regions of brain tissue (ESI, ^† Section 4.2). [^18F]AlF-NODA-dLVT specifically bound regions known to express appreciable levels of OTR (Fig. 3),[23]–[26] including hippocampus (CA1: 53 ± 4%; subiculum, S: 60 ± 1%), central amygdala nucleus (ac: 56 ± 1%), olfactory systems (olfactory tubercle, Tu: 53 ± 5%; anterior olfactory nucleus, AO: 38 ± 2%), acumens nuclei (Acb: 43 ± 4%), and cortical regions (visual cortex, V1: 61 ± 4%; motor cortex, MC: 42 ± 4%).

OTR in rat brain slices = target: T1, OTR in rat brain slices (Rattus norvegicus, UniProt P70536); experiment: Rat brain autoradiography, specific binding; details: 3 nM tracer, nonspecific with 10 μM OT, rat brain sagittal slices
T1 construct: from tissue; host or cells: sagittal brain sections of male Wistar rats
T1 sequence (P70536 1-388): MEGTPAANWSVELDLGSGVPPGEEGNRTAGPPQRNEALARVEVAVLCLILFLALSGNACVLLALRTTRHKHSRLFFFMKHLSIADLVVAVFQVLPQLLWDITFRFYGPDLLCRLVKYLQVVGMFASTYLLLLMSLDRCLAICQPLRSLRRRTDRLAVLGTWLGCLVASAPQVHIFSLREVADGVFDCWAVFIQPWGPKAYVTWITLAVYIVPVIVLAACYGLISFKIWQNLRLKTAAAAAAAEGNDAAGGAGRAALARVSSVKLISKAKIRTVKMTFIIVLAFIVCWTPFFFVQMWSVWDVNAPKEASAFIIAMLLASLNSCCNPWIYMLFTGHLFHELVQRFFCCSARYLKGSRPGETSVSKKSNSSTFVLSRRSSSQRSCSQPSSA
Procedure: as §1
Fig. 3 Specific binding profile of [^18F]AlF-NODA-dLVT. Radiograms of total (top; 3 nM [^18F]AlF-NODA-dLVT) and nonspecific binding (bottom; 3 nM [^18F]AlF-NODA-dLVT and 10 μM OT) of [^18F]AlF-NODA-dLVT to rat brain slices in the sagittal pane. Areas with high specific binding are indicated on the figure with arrow heads. Key: AO = anterior olfactory nucleus; CA1 = field CA1 of the hippocampus; Acb = accumbens nuclei; Tu = olfactory tubercle; VMH = ventromedial hypothalamic nuclei; MC = motor cortex; V1 = primary visual cortex; S = subiculum; ac = central amygdala nucleus; lo = lateral olfactory tract. […]
was 84 ± 2%. After 30 min 18F yields remained at 84 ± 3%.
4.1 Tissue Preparation for rat brain autoradiography
Male Wistar rats (250 g; n=3) were stunned then decapitated. Brains were rapidly removed, incubated in 20% sucrose solution for 2 h, and immediately frozen (-80 °C). Tissues were stored at -80 °C until required. Rat brains were sectioned in the sagittal plane (20 µm thickness; according to the atlas of Paxinos and Watson, 1998). Tissues were cut using a cryostat microtome (CM3050S, Leica, UK), and thaw-mounted onto glass microscope slides. Slides were stored at -80 °C until use.
4.2 Autoradiography Procedure
Tissue was thawed to room temperature, dried then washed with ice cold buffer (50 mM Tris, pH 7.4). Sections were air dried and incubated for 1 h at room temperature with [18F]AlF-NODA-dLVT (3 nM) in buffer (50 mM Tris pH 7.4, 10 mM MgCl2). For nonspecific binding, OT (10 µM) was co-incubated with [18F]AlF-NODA-dLVT (3 nM) over the duration of the experiment. After incubation, slides were washed with ice-cold buffer (2 min × 2), followed by a final wash in ice-cold distilled water (2 min). Slides were dried in a cool airstream then exposed to 18F sensitive phosphor screens (Amersham, UK) with [18F]AlF-NODA-dLVT standards in X-ray cassettes overnight. Phosphor screens were imaged using a Typhoon 8600 scanner (Molecular Dynamics) and images were analysed with OptiQuant 5.0 (Perkin Elmer) and FIJI. Values were converted to relative binding percentages using calibrated [18F]AlF-NODA-dLVT standards. Binding potential (BP) is defined as the binding of tracer in brain region/total activity incubated as determined by the standard. Specific binding in each region is calculated by comparing the total and non-specific BP by the equation: ((total BP – non-specific BP)/total BP) × 100.

in vivo = details: rat; for tissue uptake at 0.5 h / tissue uptake at 10 min: female, Wistar, in vivo, total radioactivity; for tissue uptake at 0.5 h: inhaled or intranasal
Procedure: To investigate the plausibility of i.n. administration for OT-like therapies, given the similar structure and hydrophilic profile between AlF-NODA-dLVT and OT, in vivo tissue distribution of [^18F]AlF-NODA-dLVT was determined following i.n. or i.v. administration. […]. Here, it is anticipated that both routes show independent kinetic and metabolic profiles and the extended apparent availability of OT following i.n. administration supports a longer timeframe for this study.[27],[28] Distribution was determined through gamma counting of radioactivity in isolated tissue. A large portion underwent excretion via kidneys (i.v. 4.6 ± 0.4%ID per g; i.n. 1.31 ± 0.7%ID per g) and urine (i.v. 2.5 ± 1.2%ID per g; i.n. 7.7 ± 2.2%ID per g), as expected from the hydrophilic character of the tracer, similar to previous results found with radiolabelled OT given i.v. (Fig. 4A).[29]
Fig. 4 Biodistribution of [^18F]AlF-NODA-dLVT in rat. […] Both are shown relative to blood levels following either i.n. (30 min) or i.v. (10 min) administration. Each data point corresponds to mean ± SD, n = 3.
All animal experiments were performed in accordance to the Animals (Scientific Procedures) Act 1986 and were approved by the King’s college London ethical review committee. The work was performed under PPL 70/8230 (Reza Rezavi). Adult female Wistar rats (220 ± 4.5 g) were group housed at 21 ± 1 °C in a 12 h light:dark cycle with ad libitum access to standard rat chow and water. [18F]AlF-NODA-dLVT was formulated in 0.9% saline to contain no more than 5% MeOH. Female Wistar rats received a dose of [18F]AlF-NODA-dLVT by tail vein injection (up to 650 μL in volume), or via nasal administration using a syringe with a plastic cannula attached to one nostril (25 μL per nare).
A 0.3 mL insulin syringe, containing a 29-gauge needle, was fitted with a PE10 cannula (15 mm). The cannula was fitted so that it covered approximately 3 mm of the needle tip.
Radioligand was added to the syringe and the activity measured before and after administration to calculate the injected dose (ID). Anesthesia was induced using a mixture of 5% isoflurane and oxygen (Animalcare, UK) at a flow rate of 1 L/min and maintained at 2.5% isoflurane.
Once unresponsive, the rat was held in an almost vertical position and radioactivity was administered through one nare at the back of the nasal cavity.
Rats were sacrificed by removal of the heart under isoflurane anaesthesia at 10 min following tail vein injection or 30 min following i.n. administration. Major organs were excised, washed with saline, weighed and counted in a gamma counter (LKB Wallac 1282), together with standards of the injection mixture. Organ uptake was calculated as percentage injected dose per gram [%ID/g] of tissue mass. Data are reported as mean ± SD.

human OTR = target: T2, human OTR (Homo sapiens, UniProt P30559); experiment: Scintillation proximity assay, displacement of [3H]OT from human OTR; assay type: binding; details: for Ki: human OTR
T2 construct: expressed in transfected cells
T2 sequence (P30559 1-389): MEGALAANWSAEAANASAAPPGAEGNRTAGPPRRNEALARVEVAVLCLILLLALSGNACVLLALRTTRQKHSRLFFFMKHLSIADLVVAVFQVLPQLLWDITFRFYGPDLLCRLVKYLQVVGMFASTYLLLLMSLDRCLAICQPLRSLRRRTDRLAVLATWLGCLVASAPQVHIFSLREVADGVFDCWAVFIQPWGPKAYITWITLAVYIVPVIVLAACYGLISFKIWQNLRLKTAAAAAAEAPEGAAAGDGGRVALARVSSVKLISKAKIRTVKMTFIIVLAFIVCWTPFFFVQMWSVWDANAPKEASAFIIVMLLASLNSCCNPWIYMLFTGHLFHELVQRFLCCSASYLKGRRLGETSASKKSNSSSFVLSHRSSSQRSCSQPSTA
From the text: (§2) OT analogues were screened in scintillation proximity assays that displace [^3H]OT or [^3H]AVP from the corresponding receptors. […]
(§3) All RCYs reported are decay corrected to the time of 18F delivery. The protocols for performing
(§4) receptor radioligand binding and potency studies on transfected cells to determine affinity

human V1a receptors = target: T3, human V1a receptors (Homo sapiens, UniProt P37288); experiment: Scintillation proximity assay, displacement of [3H]AVP from human V1a receptor; assay type: binding
T3 construct: expressed in transfected cells
T3 sequence (P37288 whole entry): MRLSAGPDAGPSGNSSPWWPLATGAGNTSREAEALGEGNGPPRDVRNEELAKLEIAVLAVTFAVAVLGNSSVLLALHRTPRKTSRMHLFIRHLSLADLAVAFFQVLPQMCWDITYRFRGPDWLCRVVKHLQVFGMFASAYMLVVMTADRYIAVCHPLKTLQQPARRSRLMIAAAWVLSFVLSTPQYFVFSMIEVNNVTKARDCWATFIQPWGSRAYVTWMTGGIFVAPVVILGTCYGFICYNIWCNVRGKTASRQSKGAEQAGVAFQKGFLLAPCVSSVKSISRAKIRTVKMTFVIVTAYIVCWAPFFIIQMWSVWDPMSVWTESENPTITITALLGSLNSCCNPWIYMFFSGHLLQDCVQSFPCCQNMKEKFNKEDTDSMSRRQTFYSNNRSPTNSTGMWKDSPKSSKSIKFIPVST
From the text: as §2, §3, §4

[2] = target: T4, human vasopressin receptor V2 (Homo sapiens, UniProt P30518); experiment: Scintillation proximity assay, displacement of [3H]AVP from human V2 receptor; assay type: binding
T4 construct: expressed in transfected cells
T4 sequence (P30518 whole entry): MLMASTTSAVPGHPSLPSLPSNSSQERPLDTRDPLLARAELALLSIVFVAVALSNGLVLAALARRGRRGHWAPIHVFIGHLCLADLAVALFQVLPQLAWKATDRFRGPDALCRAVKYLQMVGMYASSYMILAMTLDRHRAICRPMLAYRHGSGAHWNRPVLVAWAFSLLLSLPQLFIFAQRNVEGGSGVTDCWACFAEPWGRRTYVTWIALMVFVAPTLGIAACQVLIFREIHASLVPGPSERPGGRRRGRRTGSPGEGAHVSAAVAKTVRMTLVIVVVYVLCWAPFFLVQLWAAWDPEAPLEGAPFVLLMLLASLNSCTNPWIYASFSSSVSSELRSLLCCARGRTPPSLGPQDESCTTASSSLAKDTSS
From the text: as §2, §3, §4

CC[C@H](C)[C@@H]1NC(=O)[C@H](Cc2ccc(O)cc2)NC(=O)[C@@H](N)CSSC[C@@H](C(=O)N2CCC[C@H]2C(=O)N[C@@H](CC(C)C)C(=O)NCC(N)=O)NC(=O)[C@H](CC(N)=O)NC(=O)[C@H](CCC(N)=O)NC1=O [OTc, oxytocin]
plasma half-life [1]: approximately 3 min

CC[C@H](C)[C@@H]1NC(=O)[C@H](Cc2ccc(O)cc2)NC(=O)CCSSC[C@@H](C(=O)N2CCC[C@H]2C(=O)N[C@@H](CCCCNC(=O)Cc2ccc(CN3CCN(CC(=O)O)CCN(CC(=O)O)CC3)cc2)C(=O)NCC(N)=O)NC(=O)[C@H](CC(N)=O)NC(=O)[C@H](CCC(N)=O)NC1=O [[^18F]AlF-NODA-dLVT] ([Mpa]YIQNCPK(X1)G-NH2; disulfide 1-6)
logD (physchem): -0.54 | % specific binding, acumens nuclei (Acb) (OTR in rat brain slices): 43 ± 4% | % specific binding, anterior olfactory nucleus (AO) (OTR in rat brain slices): 38 ± 2% | % specific binding, central amygdala nucleus (ac) (OTR in rat brain slices): 56 ± 1% | % specific binding, hippocampus CA1 (OTR in rat brain slices): 53 ± 4% | % specific binding, motor cortex (MC) (OTR in rat brain slices): 42 ± 4% | % specific binding, olfactory tubercle (Tu) (OTR in rat brain slices): 53 ± 5% | % specific binding, subiculum (S) (OTR in rat brain slices): 60 ± 1% | % specific binding, visual cortex (V1) (OTR in rat brain slices): 61 ± 4% | tissue uptake at 0.5 h (in vivo; uptake in brain parenchyma): 0.11 ± 0.03 %ID/g | tissue uptake at 0.5 h (in vivo; uptake in cerebellum): 0.31 ± 0.26 %ID/g | tissue uptake at 0.5 h (in vivo; uptake in kidneys): 1.31 ± 0.7 %ID/g | tissue uptake at 0.5 h (in vivo; uptake in olfactory bulb): 2.3 ± 1.8 %ID/g | tissue uptake at 10 min (in vivo; iv, uptake in brain parenchyma): 0.05 ± 0.03 %ID/g | tissue uptake at 10 min (in vivo; iv, uptake in cerebellum): 0.05 ± 0.01 %ID/g | tissue uptake at 10 min (in vivo; iv, uptake in kidneys): 4.6 ± 0.4 %ID/g | tissue uptake at 10 min (in vivo; iv, uptake in olfactory bulb): 0.05 ± 0.02 %ID/g | brain permeable material (in vivo; iv): approximately 4.7 × 10^–2 %ID per g

CC[C@H](C)[C@H](NC(=O)[C@H](Cc1ccc(O)cc1)NC(=O)CCS)C(=O)N[C@@H](CCC(N)=O)C(=O)N[C@@H](CC(N)=O)C(=O)N[C@@H](CS)C(=O)N1CCC[C@H]1C(=O)N[C@@H](CCCCN)C(=O)NCC(N)=O [dLVToc] ([Mpa]YIQNCPKG-NH2)
Ki (human OTR): 6.3 ± 3.6 nM | Ki (human V1a receptors): 31 ± 9 nM | Ki [2]: 5820 ± 1700 nM

CC[C@H](C)[C@H](NC(=O)[C@H](Cc1ccc(O)cc1)NC(=O)CCS)C(=O)N[C@@H](CCC(N)=O)C(=O)N[C@@H](CC(N)=O)C(=O)N[C@@H](CS)C(=O)N1CCC[C@H]1C(=O)N[C@@H](CC(C)C)C(=O)NCC(N)=O [dOToc]
Ki (human OTR): 1.2 ± 0.9 nM | Ki (human V1a receptors): 362 ± 124 nM

CC[C@H](C)[C@@H]1NC(=O)[C@H](Cc2ccc(O)cc2)NC(=O)CCSSC[C@@H](C(=O)N2CCC[C@H]2C(=O)N[C@@H](CCCCN)C(=O)NCC(N)=O)NC(=O)[C@H](CC(N)=O)NC(=O)[C@H](CCC(N)=O)NC1=O [dLVTc, reference compound] ([Mpa]YIQNCPKG-NH2; disulfide 1-6)
selectivity towards OTR (human OTR; OTR over V1a, from Ki values of Table 1): ~7 fold | Ki (human OTR): 3.4 ± 1 nM | Ki (human V1a receptors): 24 ± 5 nM | Ki [2]: 4840 ± 1670 nM

CC[C@H](C)[C@@H]1NC(=O)[C@H](Cc2ccc(O)cc2)NC(=O)CCSSC[C@@H](C(=O)N2CCC[C@H]2C(=O)N[C@@H](CC(C)C)C(=O)NCC(N)=O)NC(=O)[C@H](CC(N)=O)NC(=O)[C@H](CCC(N)=O)NC1=O [dOTc]
Ki (human OTR): 1.6 ± 1.3 nM | Ki (human V1a receptors): 388 ± 157 nM
